In US10696686B2, “Herbicidally active (alkynyl-phenyl)-substituted cyclic dione compounds and derivatives thereof” (Syngenta Limited, priority 2013, dated 2020):

Key:
Assay in all cases: Biological Example 3 glasshouse assay using various adjuvant systems, post-emergence foliar spray
Assay type in all cases: in vivo
[1] = tested on: Eleusine indica (ELEIN); conditions: 8 g/ha, 14 DAA (A11: 14 or 15 DAA), adjuvant 0.5% v/v Adigor + 1.0% v/v AMS + 12.5% v/v IPA
Experimental: (§1) Post-emergence foliar spray application, 200 L/ha, usually one or two replicates for the weeds (depending on application rate), and two replicates for soybean.
(§2) Standard warm conditions (tropical), in glasshouse. Specifically, the glasshouse bay conditions are 24° C./18° C. day/night; 16/8 hours light/dark; 65% humidity.
(§3) The herbicidal application takes place at the following growth stages for plants which include inter alia one or more of the following plants (usually the herbicidal application takes place on at least the following plants: DIGSA, ELEIN, SETFA, ZEAMX, GLXMA Nikko, and GLXMA TMG133, and often also either BRADC or BRAPP):
Eleusine indica (ELEIN)—growth stage 12 or 13
(§4) Each test compound is applied with one of the following adjuvant systems (all percentages are final concentrations in the aqueous spray mixture):
(§5) Adjuvant system 1: 0.5% v/v Adigor™ *, 1.0% v/v AMS (ammonium sulphate) and 12.5% v/v IPA (isopropyl alcohol).
(§6) Adjuvant system 1A: 0.5% v/v Adigor™ * and 12.5% v/v IPA (isopropyl alcohol).
(§7) CAS Registry no. […] A visual assessment of the % herbicidal damage is made 7 and 14 Days After herbicide Application (DAA) (or, in a minority of cases, 7 and 15 DAA), and the results are recorded as % visual herbicidal damage where 0%=no damage to plants and 100%=plant totally killed. *** Adjuvant system=either Adigor™ or Hexamoll DINCH™ or tris-(2-ethylhexyl) phosphate each at 0.5% v/v, and 12.5% v/v IPA (isopropyl alcohol), and 1.0% v/v AMS (ammonium sulphate); or 0.5% v/v Adigor™ and 12.5% v/v IPA (isopropyl alcohol); all percentages are final concentrations in the aqueous spray mixture. […]
(§8) The percentages of herbicidal damage/plant control, at 14 Days After herbicide Application (DAA) (or, in a minority of cases, at 15 DAA), for the Compounds tested and for some of the plants tested, were in the following percentage ranges. […] Phytotoxicity on Glycine max (GLXMA, Soybean) Cultivar “TMG133” Glycine max (GLXMA, soybean) cultivar “TMG133” is Roundup Ready™ glyphosate-tolerant soybean cultivar TMG133, and is typically available from Monsanto in Brazil.

[2] = tested on: Digitaria sanguinalis (DIGSA); conditions: 8 g/ha, 14 DAA (A11: 14 or 15 DAA), adjuvant 0.5% v/v Adigor + 1.0% v/v AMS + 12.5% v/v IPA
Experimental: as §1, §2, §3
Digitaria sanguinalis (DIGSA)—growth stage 12 or 13
as §4, §5, §6, §7
The percentages of herbicidal damage/plant control, at 14 Days After herbicide Application (DAA) (or, in a minority of cases, at 15 DAA), for the Compounds tested and for some of the plants tested, were in the following percentage ranges. […] Phytotoxicity on Glycine max (GLXMA, Soybean) Cultivar “TMG133” Glycine max (GLXMA, soybean) cultivar “TMG133” is Roundup Ready™ glyphosate-tolerant soybean cultivar TMG133, and is typically available from Monsanto in Brazil. […]

[3] = tested on: Zea mays (ZEAMX, maize, corn) cultivar Garland; conditions: 8 g/ha, 14 DAA (A11: 14 or 15 DAA), adjuvant 0.5% v/v Adigor + 1.0% v/v AMS + 12.5% v/v IPA
Experimental: as §1, §2, §3
Zea mays (ZEAMX, maize/corn, e.g. can occur as volunteer corn) cultivar “Garland”—growth stage 12 or 13
as §4, §5, §6
(§9) CAS Registry no. 166412-78-8), and is usually available from BASF. “Isononyl” in this context is thought to mean a mixture of two or more branched isomers of C9H19. […] A visual assessment of the % herbicidal damage is made 7 and 14 Days After herbicide Application (DAA) (or, in a minority of cases, 7 and 15 DAA), and the results are recorded as % visual herbicidal damage where 0%=no damage to plants and 100%=plant totally killed. *** Adjuvant system=either Adigor™ or Hexamoll DINCH™ or tris-(2-ethylhexyl) phosphate each at 0.5% v/v, and 12.5% v/v IPA (isopropyl alcohol), and 1.0% v/v AMS (ammonium sulphate); or 0.5% v/v Adigor™ and 12.5% v/v IPA (isopropyl alcohol); all percentages are final concentrations in the aqueous spray mixture. […]

[4] = tested on: Setaria faberi (SETFA); conditions: 8 g/ha, 14 DAA (A11: 14 or 15 DAA), adjuvant 0.5% v/v Adigor + 1.0% v/v AMS + 12.5% v/v IPA
Experimental: as §1, §2, §3
Setaria faberi (SETFA)—growth stage 12 or 13
as §4, §5, §6, §7, §8

[5] = tested on: Glycine max (GLXMA, soybean) cultivar TMG133; conditions: 14 DAA (A11: 14 or 15 DAA), adjuvant 0.5% v/v Adigor + 1.0% v/v AMS + 12.5% v/v IPA
Experimental: as §1, §2, §3
Glycine max (GLXMA, soybean) cultivar “TMG133”—which is Roundup Ready™ glyphosate-tolerant soybean cultivar TMG133 (typically available from Monsanto in Brazil)—growth stage: 1st trifoliate.
as §4, §5, §6
(§10) CAS Registry no. 166412-78-8), and is usually available from BASF. “Isononyl” in this context is thought to mean a mixture of two or more branched isomers of C9H19. Method: Seeds of the weed (including volunteer) plants, typically including inter alia Digitaria sanguinalis (DIGSA), Eleusine indica (ELEIN), Setaria faberi (SETFA), Zea mays (ZEAMX, corn), and sometimes also [either Brachiaria decumbens (BRADC) or Brachiaria platyphylla (BRAPP)], are sown in seed trays (troughs) containing clay loam soil (pH 7.0, 2.2% organic matter, “Trough Mix A”); and soybean seed is sown in pots containing the same soil with 3 soybean seedlings per pot. The plants are sprayed with the test herbicide when they reach the growth stages mentioned above. The test herbicidal solutions are prepared by mixing the appropriate aliquots of the test substance(s) and one of the adjuvant systems indicated above *** in deionised water to give the desired treatment concentration. The herbicidal application is made as a foliar spray, using a tracksprayer. Following the herbicidal application, the plants are watered twice per day for the duration of the test. A visual assessment of the % herbicidal damage is made 7 and 14 Days After herbicide Application (DAA) (or, in a minority of cases, 7 and 15 DAA), and the results are recorded as % visual herbicidal damage where 0%=no damage to plants and 100%=plant totally killed. *** Adjuvant system=either Adigor™ or Hexamoll DINCH™ or tris-(2-ethylhexyl) phosphate each at 0.5% v/v, and 12.5% v/v IPA (isopropyl alcohol), and 1.0% v/v AMS (ammonium sulphate); or 0.5% v/v Adigor™ and 12.5% v/v IPA (isopropyl alcohol); all percentages are final concentrations in the aqueous spray mixture.
(§11) Compounds A8, A11 and A17, which are compounds of formula (I) according to the present invention, were tested in a test method substantially as described above.
(§12) Compound A8 was tested using the 0.5% v/v Adigor™+12.5% v/v IPA adjuvant system. Compounds A11 and A17 were tested using the 0.5% v/v Adigor™+1.0% v/v AMS+12.5% v/v IPA adjuvant system.
The percentages of herbicidal damage/plant control, at 14 Days After herbicide Application (DAA) (or, in a minority of cases, at 15 DAA), for the Compounds tested and for some of the plants tested, were in the following percentage ranges. […]

[6] = tested on: Glycine max (GLXMA, soybean) cultivar Nikko; conditions: post-emergence, 14 DAA (A11: 14 or 15 DAA), adjuvant 0.5% v/v Adigor + 1.0% v/v AMS + 12.5% v/v IPA
Experimental: as §1, §2, §3
Glycine max (GLXMA, soybean) cultivar “Nikko”—growth stage: 1st trifoliate
as §4, §5, §6, §10, §11, §12
The percentages of herbicidal damage/plant control, at 14 Days After herbicide Application (DAA) (or, in a minority of cases, at 15 DAA), for the Compounds tested and for some of the plants tested, were in the following percentage ranges. At least for Compounds A8 and A17, the phytotoxicity results shown herein are the average of 2 repetitions (for the grassy weeds, corn and soybean). […] Control of Zea mays (ZEAMX, Corn), a Warm-Climate (Warm-Season) Grassy Plant Zea mays (ZEAMX, maize, corn) is often present as a “volunteer” weed (“volunteer” corn) in fields where it was planted as a crop in preceding growing season(s) and where the present field crop is not corn. […]

[7] = tested on: Brachiaria decumbens (BRADC); conditions: 8 g/ha, 14 DAA (A11: 14 or 15 DAA), adjuvant 0.5% v/v Adigor + 1.0% v/v AMS + 12.5% v/v IPA
Experimental: as §1, §2, §3
Brachiaria decumbens (BRADC)—growth stage (GS) 12 or 13 (or GS 12)—or, if BRADC is not used, then usually Brachiaria platyphylla (BRAPP)—growth stage 12 or 13
as §4, §5, §6, §9

## CC#Cc1cc(F)c(C2C(=O)CCCC2=O)c(OC)c1 [Compound A17]
[1]
  percentage control of Eleusine indica (ELEIN): 0%
[2]
  percentage control of Digitaria sanguinalis (DIGSA): 0%
[3]
  percentage control of Zea mays (ZEAMX, maize, corn): 0%
[4]
  percentage control of Setaria faberi (SETFA): 0%
[5]; 120 g/ha
  percentage phytotoxicity on Glycine max (GLXMA, soybean) cultivar TMG133: 5%
[5]; 240 g/ha
  percentage phytotoxicity on Glycine max (GLXMA, soybean) cultivar TMG133: 7.5%
[6]; 120 g/ha
  percentage phytotoxicity on Glycine max (GLXMA, soybean) cultivar Nikko: 5%
[6]; 240 g/ha
  percentage phytotoxicity on Glycine max (GLXMA, soybean) cultivar Nikko: 7.5%
[7]
  percentage control of (phytotoxicity on) Brachiaria decumbens (BRADC): 0%
